Data published in article PMC12208134, “Structure-activity relationships of 1,5-dihydro-2H-benzo[b][1,4]diazepine-2,4(3H)-diones as inhibitors of Trypanosoma cruzi” (RSC medicinal chemistry, 2025).
In brackets after ≈: the same amount, converted by molar mass. Several values for one entry are separate records, joined by “and”; a condition that tells them apart may be missing. Equal entries are not always repeated. Where two headings read alike, the source gives them in different places. Blank lines part the entries; values can stand above or below the compound they belong to.

Experiments:
[1] = tested on: intracellular T. cruzi amastigotes; experiment: T. cruzi intracellular potency assay (high content imaging); format: cell-based, Trypanosoma cruzi; parameters: key to Max Effect (T. cruzi): % inhibition; 0% = DMSO control, 100% = 16 μM nifurtimox control; conditions: for Emax / IC50 / EC50: Trypanosoma cruzi; for Emax / Hill slope (T. cruzi) / Max Effect (T. cruzi) / pEC50 (T. cruzi) / EC50: individual replicate; for Emax: read-out: Max Effect (T. cruzi); for IC50: intracellular amastigotes in Vero cells, 96 h, mean of N ≥ 3, read-out: T. cruzi pIC50 (converted); for EC50: read-out: pEC50 (T. cruzi) (converted)
Protocol: (§1) T. cruzi intracellular potency and rate-of-kill assay (high content imaging) ^1
(§2) Silvio X10/7 T. cruzi trypomastigotes were incubated at 37°C 5% CO2 with 1.6×10^7 Vero cells overnight at MOI10 in MEM media supplemented with 10% foetal calf serum (FCS). Extracellular parasites were removed by aspirating cell culture supernatant, and washing Vero monolayer with 10 ml serum-free MEM three times. Vero cells were then harvested by trypsinization and dispensed at 2×10^3 per well (50 μl in MEM/ 1% FCS) into 384 well plates pre-stamped with compounds in DMSO using automated washer/ dispenser EL406 and liquid handling software (Biotek). Plates were then incubated at 37°C in 5% CO2 for 96 h. For rate-of-kill determination, plates were incubated for 24h, 48h, 72h and 96h.
(§3) Plates were subsequently fixed with 4% formaldehyde for 20 min, permeabilised and stained with 5 μgml^-1 Hoechst 33342/ 0.1% Triton/ PBS Thimerosal 20 min. Automated imaging was performed by an Operetta high content imaging system using 20x objective (PerkinElmer). Images were analysed with an algorithm generated in Columbus (PerkinElmer) to segment Vero cell nuclei, Vero cell cytoplasm and parasite nuclei/ kinetoplasts, reporting number of amastigotes per Vero cell, percent infected Vero cells and total number of Vero cells. Compound potencies against T. cruzi parasites were calculated in IDBS Activitybase using percent infected Vero cells and Vero toxicity curves generated using number of host cells. All data was normalised to percent inhibition based on the raw data values for the 100% effect control (16 μM nifurtimox) and the 0% effect control (DMSO) on each plate at each time point. Curve fitting was carried out using a four-parameter equation as previously described. ^2 For rate-of-kill experiments the percent infected cells at each compound concentration was plotted against time.

[2] = tested on: host Vero cell; experiment: Vero host cell toxicity in the intracellular T. cruzi assay; format: cell-based; parameters: key to Max Effect (Vero): % inhibition; 0% = DMSO control, 100% = 16 μM nifurtimox control; conditions: for EC50 / IC50: Chlorocebus sabaeus; for EC50: Vero; for IC50: host Vero cell, read-out: Vero pIC50 (converted)
Protocol: as §1, §2, §3

[3] = Kinetic aqueous solubility by CAD; format: physicochemical; conditions: kinetic from dmso stock
[4] = Mouse liver microsomal intrinsic clearance; format: in vitro ADME
[5] = Human liver microsomal intrinsic clearance; format: in vitro ADME
[6] = ChromLogD pH7.4 (chromatographic hydrophobicity index), PFI, LLE; conditions: for PFI: ChromLogDpH7.4 + no. aromatic rings; for chromatographic logD: pH 7.4
Source text: [23] Alongside PFI, LLE (ligand lipophilic efficiency, T. cruzi pIC50 - ChromLogDpH7.4) was also monitored to identify changes where the impact on potency was not driven by increasing lipophilicity.

[7] = tested on: intracellular T. cruzi; experiment: T. cruzi washout assay; format: cell-based, Trypanosoma cruzi; conditions: 25 x IC50 for 16 days, infected Vero cells
Protocol: For any hits identified and successfully triaged, the initial focus of hit-expansion is to identify compounds with a suitable profile to run in a washout assay.,[21] In this assay, intracellular T. cruzi are treated with high doses of compounds for an extended duration (25x IC50 for 8 – 16 days), followed by compound washout and assessment of parasite relapse over 60 days to assess ability to clear all parasites, including any persisters. […] Compound series with a profile equal to or better than benznidazole can then be progressed to an in vivo efficacy model of chronic Chagas disease with a high probability of success.
At this stage, we were keen to examine our options for progression into the T. cruzi washout assay, [12],[21] and decided to move forward with 2, 14 and 16 to give coverage across both chemotypes. […] After this dosing period, the compound was washed off the infected cells, and the host cell monolayer was monitored for egressed parasites. The first day egressed parasites were detected post washout was noted down as the relapse day. In this assay, posaconazole, which is known to be ineffective in the clinic, relapsed after 10 days and benznidazole, used as the bench-mark clinical compound, relapsed after 31 / 35 days (2 replicates). We were therefore looking for compounds that relapsed at an equivalent time to benznidazole, or later, to be considered worth pursuing further.
Intracellular T. cruzi washout assays were carried out with the Silvio X10/7 strain using the protocol previously described. ^1

[8] = tested on: T. cruzi trypomastigotes; parameters: method as in PMID 30001347; conditions: cited from earlier work
[9] = target: Tc-CYP51 (Trypanosoma cruzi, UniProt Q7Z1V1); experiment: T. cruzi sterol 14α-demethylase (CYP51) enzyme assay; format: biochemical; conditions: for Tc CYP51 Hill / Emax / IC50: individual replicate; for Emax: read-out: Tc CYP51 Max Effect; for IC50: read-out: Tc CYP51 pIC50 (converted); for fold more potent against the parasites than against Tc-CYP51: urea series
Protocol: T. cruzi sterol 14α-demethylase (CYP51) enzyme assay
Potency against T. cruzi CYP51 was determined using a previously described fluorescence assay. Average potency for compound 1 was determined with three experimental replicates. Potencies in Fig.3 are from single experimental replicates. ^5

[10] = tested on: T. cruzi; parameters: method as in PMID 24827034, PMID 29352704; conditions: clinical trials; cited from earlier work
[11] = kinetic, CAD, read-out: Aqueous solubility

Chain of Tc-CYP51 (Q7Z1V1 whole entry): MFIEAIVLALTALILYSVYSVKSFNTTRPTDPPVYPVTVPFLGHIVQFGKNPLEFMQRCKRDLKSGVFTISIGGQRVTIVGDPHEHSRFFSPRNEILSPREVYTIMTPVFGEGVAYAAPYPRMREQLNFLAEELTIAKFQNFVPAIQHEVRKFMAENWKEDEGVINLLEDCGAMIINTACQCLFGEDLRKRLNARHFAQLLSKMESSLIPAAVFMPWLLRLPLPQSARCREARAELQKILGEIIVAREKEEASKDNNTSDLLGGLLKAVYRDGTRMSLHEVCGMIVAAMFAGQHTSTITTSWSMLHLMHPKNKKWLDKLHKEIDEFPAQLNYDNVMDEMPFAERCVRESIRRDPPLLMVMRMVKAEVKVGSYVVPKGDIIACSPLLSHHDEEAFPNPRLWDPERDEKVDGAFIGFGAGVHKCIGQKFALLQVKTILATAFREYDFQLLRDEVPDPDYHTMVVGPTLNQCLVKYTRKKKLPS

Structure (SMILES): CC(C)N(C(=O)CN1C(=O)C(N)C(=O)N(c2ccccc2)c2ccccc21)c1ccccc1 (racemic) [Compound 14, 2-(3-amino-2,4-dioxo-5-phenyl-2,3,4,5-tetrahydro-1H-benzo[b][1,4]diazepin-1-yl)-N-isopropyl-N-phenylacetamide]
Emax [1]: 89%
IC50 [1]: 200 nM
Hill slope (T. cruzi) [1]: 4.0 and 12.9 and 3.7 and 29.0 and 4.4 and 2.2 and 5.2
Max Effect (T. cruzi) [1]: 87 and 86 and 88 and 93 and 92 and 82
pEC50 (T. cruzi) [1]: 6.6 and 6.8 and 7.0 and 6.7
EC50 ([2]; individual replicate): > 50100 nM
IC50 [2]: > 50100 nM
Max Effect (Vero) ([2]; individual replicate): -6.63 and 8 and -0.0425 and 13 and 41 and 1.19 and 11
pEC50 (Vero) ([2]; individual replicate): < 4.3
solubility [3]: > 500 µM
MLM CLi ([4]; mouse, microsomes): 3.4 mL/min/g
HLM CLi ([5]; human, microsomes): <0.4 mL/min/g
PFI [6]: 8.0
chromatographic logD [6]: 5
relapse day post washout [7]: 6 days

Structure (SMILES): O=C(Cn1ccnc1[N+](=O)[O-])NCc1ccccc1 [benznidazole, reference compound]
relapse day post washout [7]: 31 days and 35 days
activity against trypomastigotes [8]: good activity

Structure (SMILES): COc1ccc(CN2C(=O)C(N)C(=O)N(c3ccc(OC)cc3)c3ccccc32)cc1 (stereo not drawn) [Compound 16, 3-amino-1-(4-methoxybenzyl)-5-(4-methoxyphenyl)-1,5-dihydro-2H-benzo[b][1,4]diazepine-2,4(3H)-dione]
Emax [1]: 86%
EC50 [1]: 316 nM
IC50 [1]: 316 nM
Hill slope (T. cruzi) [1]: 3.7 and 4.5 and 5.7 and 13.7
Max Effect (T. cruzi) [1]: 81 and 84 and 91
pEC50 (T. cruzi) [1]: 6.6
EC50 ([2]; individual replicate): > 50100 nM
IC50 [2]: > 50100 nM
Max Effect (Vero) ([2]; individual replicate): 21 and 44 and 30 and 5.55
solubility [3]: > 270 µM
MLM CLi ([4]; mouse, microsomes): 7.6 mL/min/g
HLM CLi ([5]; human, microsomes): <0.4 mL/min/g
PFI [6]: 7.2
chromatographic logD [6]: 4.2
relapse day post washout [7]: 6 days

Structure (SMILES): COc1ccc(CN2C(=O)C(N)C(=O)N(c3ccc(OC)nc3)c3ccccc32)cc1 (stereo not drawn) [Compound 18, 3-amino-1-(4-methoxybenzyl)-5-(6-methoxypyridin-3-yl)-1,5-dihydro-2H-benzo[b][1,4]diazepine-2,4(3H)-dione]
Emax [1]: 75%
EC50 [1]: 501 nM
IC50 [1]: 501 nM
Hill slope (T. cruzi) [1]: 11.9 and 18.7 and 19.1 and 12.3
Max Effect (T. cruzi) [1]: 86 and 77 and 83
EC50 ([2]; individual replicate): > 50100 nM
IC50 [2]: > 50100 nM
Hill Slope (Vero) ([2]; individual replicate): 3.7
Max Effect (Vero) ([2]; individual replicate): 39 and 19 and 56 and 14
pEC50 (Vero) ([2]; individual replicate): 4.4
Tc CYP51 Hill [9]: 1.3
Emax [9]: 100%
IC50 [9]: 200 nM
solubility [3, 11]: > 332 µM
MLM CLi ([4]; mouse liver microsomes): 5.8 mL/min/g
HLM CLi ([5]; human liver microsomes): <0.4 mL/min/g
PFI [6]: 6.8
chromatographic logD [6]: 3.8

Structure (SMILES): COc1ccc(N2C(=O)C(NC(=O)Nc3ccc(C)cc3)C(=O)Nc3ccccc32)cc1 (stereo not drawn) [Compound 4, 1-(1-(4-methoxyphenyl)-2,4-dioxo-2,3,4,5-tetrahydro-1H-benzo[b][1,4]diazepin-3-yl)-3-(p-tolyl)urea]
IC50 [1]: 1000 nM
Hill slope (T. cruzi) [1]: 5.1 and 2.8 and 7.4 and 2.7 and 3.6 and 0.6 and 4.0 and 2.2
Max Effect (T. cruzi) [1]: 106 and 89 and 74 and 85 and 86 and 109 and 107
pEC50 (T. cruzi) [1]: 5.7 and 6.1 and 5.8 and 6.5 and 5.9 and 6.0
EC50 ([2]; individual replicate): > 50100 nM
IC50 [2]: > 50100 nM
Max Effect (Vero) ([2]; individual replicate): 15 and 26 and 13 and 12 and 17 and 16 and 20 and 4
Tc CYP51 Hill [9]: 0.9
Emax [9]: 89%
IC50 [9]: 1580 nM
fold more potent against the parasites than against Tc-CYP51 [9]: 10 fold
solubility [3, 11]: 56 µM (≈ 24.1 µg/mL)
MLM CLi ([4]; mouse liver microsomes): 1.2 mL/min/g
HLM CLi ([5]; human liver microsomes): <0.4 mL/min/g
PFI [6]: 7.8
chromatographic logD [6]: 4.8

pEC50 (T. cruzi) [1]: 6.1 and 6.0 and 5.8
Tc CYP51 Hill [9]: 1.3
Emax [9]: 99%
IC50 [9]: 100 nM
solubility [3, 11]: > 402 µM
MLM CLi ([4]; mouse liver microsomes): 12 mL/min/g
HLM CLi ([5]; human liver microsomes): 0.5 mL/min/g
PFI [6]: 6.2
chromatographic logD [6]: 4.2
Structure (SMILES): COc1ccc(CN2C(=O)C(N)C(=O)N(CC3CC(F)(F)C3)c3ccccc32)cc1 (stereo not drawn) [Compound 20, 3-amino-1-((3,3-difluorocyclobutyl)methyl)-5-(4-methoxybenzyl)-1,5-dihydro-2H-benzo[b][1,4]diazepine-2,4(3H)-dione]
Emax [1]: 84%
EC50 [1]: 1260 nM
IC50 [1]: 1260 nM
Hill slope (T. cruzi) [1]: 2.8 and 3.6 and 20.7
Max Effect (T. cruzi) [1]: 90 and 80 and 87
EC50 ([2]; individual replicate): > 50100 nM
IC50 [2]: > 50100 nM
Max Effect (Vero) ([2]; individual replicate): 30 and 22 and 25 and 9

Structure (SMILES): C[C@@H](c1nc(-c2ccc(C#N)cc2)cs1)[C@@](Cn1cncn1)(OCOP(=O)(O)O)c1ccc(F)cc1F [fosravuconazole]
treatment failures in patients [10]: 70 – 90%

Structure (SMILES): COc1ccc(CN2C(=O)C(N)C(=O)N(c3ccc(F)cc3)c3ccccc32)cc1 (stereo not drawn) [Compound 17, 3-amino-1-(4-fluorophenyl)-5-(4-methoxybenzyl)-1,5-dihydro-2H-benzo[b][1,4]diazepine-2,4(3H)-dione]
Emax [1]: 88%
EC50 [1]: 501 nM
IC50 [1]: 631 nM
Hill slope (T. cruzi) [1]: 24.4 and 25.4 and 12.5 and 3.5
Max Effect (T. cruzi) [1]: 87 and 83
pEC50 (T. cruzi) [1]: 6.2 and 6.0
EC50 ([2]; individual replicate): > 50100 nM
IC50 [2]: > 50100 nM
Max Effect (Vero) ([2]; individual replicate): 26 and 8 and 14 and 23
Tc CYP51 Hill [9]: 1.8
Emax [9]: 95%
IC50 [9]: 200 nM
solubility [3, 11]: > 410 µM
MLM CLi ([4]; mouse liver microsomes): 10.6 mL/min/g
HLM CLi ([5]; human liver microsomes): <0.4 mL/min/g
PFI [6]: 7.4
chromatographic logD [6]: 4.4

Structure (SMILES): COc1ccc(NC(=O)NC2C(=O)Nc3ccccc3N(c3ccccc3)C2=O)cc1 (stereo not drawn) [Compound 2, 1-(2,4-dioxo-1-phenyl-2,3,4,5-tetrahydro-1H-benzo[b][1,4]diazepin-3-yl)-3-(4-methoxyphenyl)urea]
Emax [1]: 89%
IC50 [1]: 1260 nM
Hill slope (T. cruzi) [1]: 2.1 and 3.4 and 3.0 and 9.3 and 1.5 and 2.5 and 0.659
Max Effect (T. cruzi) [1]: 99 and 83 and 84 and 94 and 93 and 92 and 88
pEC50 (T. cruzi) [1]: 5.8 and 5.7 and 6.3 and 5.9
EC50 ([2]; individual replicate): > 50100 nM
IC50 [2]: > 50100 nM
Max Effect (Vero) ([2]; individual replicate): 26 and 22 and 25 and -6 and 27 and 29 and 1.42 and 36
Tc CYP51 Hill [9]: 1.1
Emax [9]: 95%
IC50 [9]: 7940 nM
fold more potent against the parasites than against Tc-CYP51 [9]: 10 fold
solubility [3, 11]: 64 µM (≈ 26.7 µg/mL)
MLM CLi ([4]; mouse liver microsomes): <0.5 mL/min/g
HLM CLi ([5]; human liver microsomes): <0.4 mL/min/g
PFI [6]: 7.0
chromatographic logD [6]: 4
relapse day post washout [7]: 10 days

Structure (SMILES): CC1CS(=O)(=O)CCN1/N=C/c1ccc([N+](=O)[O-])o1 (stereo not drawn) [nifurtimox]
activity against trypomastigotes [8]: good activity
